How the values were obtained:
[1] = system: A2780 intracellular CTD pSer2; test: CTD pSer2 measurement using human ovarian cancer cell A2780 and In-Cell Western method; assay type: cell-based; conditions: inhibitory rate against A2780 intracellular CTD pSer2 at 1 μM test compound, 4 hr
Protocol: Experimental Example 3: CTD pSer2 Measurement Using Human Ovarian Cancer Cell A2780 and In-Cell Western Method
A2780 cells (ATCC) were seeded in a 96 well plate at 1.8×10^4 cells/well, and the cells were cultured overnight in a cell culture medium RPMI1640 (FUJIFILM Wako Pure Chemical Corporation) containing 10% FBS (fetal bovine serum) and 1% penicillin/streptomycin. A test compound dissolved in a cell medium was added, and the mixture was stood for 4 hr in a CO2 incubator (37° C.). The cells were fixed with ALTFiX (Falma) for 30 min, and washed 3 times with a washing buffer (20 mM Tris-HCl (pH 7.5), 500 mM NaCl, 0.1% Tween20). 0.1% Triton-X-100 diluted with PBS(−) was added and the mixture was incubated at room temperature for 15 min. Thereafter, a blocking buffer (LI-COR) was added, and the mixture was incubated at room temperature for 1 hr. An anti-CTD pS2 antibody (Abcam) suspended in an antibody diluent (blocking buffer: PBS(−)-diluted 0.1% Tween20=1:1) was added, and the mixture was incubated at room temperature for 1 hr. The mixture was […] with a washing buffer, IRDye800CW-labeled anti-goat antibody (LI-COR) was added, and the mixture was incubated at room temperature for 1 hr. The mixture was washed 3 times with a washing buffer, and the fluorescence wavelength at 800 nm was measured by Aerius (LI-COR).
The inhibitory rate (%) of the test compound against A2780 intracellular CTD pSer2 was calculated by the following formula. Inhibitory rate (%)=(1−(count of test compound−blank)÷(control−blank))×100
The count of the A2780 cell under compound non-addition conditions is indicated as control, and the count under compound non-addition and primary antibody non-addition conditions is indicated as blank.
The results measured by the above-mentioned method (inhibitory rate of the signal value at 1 μM test compound relative to control) are shown below.

[2] = biological target: CDK12/CycK complex (Homo sapiens, UniProt Q9NYV4); test: Measurement of CDK12 inhibitory activity by binding assay (TR-FRET, 66 nM BODIPY-FL-labeled AT-7519); conditions: inhibitory rate against CDK12 at 1 μM test compound, 66 nM BODIPY-FL-labeled AT-7519, 2 nM CDK12/CycK
CDK12/CycK complex, sequence (Q9NYV4 whole entry, species assumed): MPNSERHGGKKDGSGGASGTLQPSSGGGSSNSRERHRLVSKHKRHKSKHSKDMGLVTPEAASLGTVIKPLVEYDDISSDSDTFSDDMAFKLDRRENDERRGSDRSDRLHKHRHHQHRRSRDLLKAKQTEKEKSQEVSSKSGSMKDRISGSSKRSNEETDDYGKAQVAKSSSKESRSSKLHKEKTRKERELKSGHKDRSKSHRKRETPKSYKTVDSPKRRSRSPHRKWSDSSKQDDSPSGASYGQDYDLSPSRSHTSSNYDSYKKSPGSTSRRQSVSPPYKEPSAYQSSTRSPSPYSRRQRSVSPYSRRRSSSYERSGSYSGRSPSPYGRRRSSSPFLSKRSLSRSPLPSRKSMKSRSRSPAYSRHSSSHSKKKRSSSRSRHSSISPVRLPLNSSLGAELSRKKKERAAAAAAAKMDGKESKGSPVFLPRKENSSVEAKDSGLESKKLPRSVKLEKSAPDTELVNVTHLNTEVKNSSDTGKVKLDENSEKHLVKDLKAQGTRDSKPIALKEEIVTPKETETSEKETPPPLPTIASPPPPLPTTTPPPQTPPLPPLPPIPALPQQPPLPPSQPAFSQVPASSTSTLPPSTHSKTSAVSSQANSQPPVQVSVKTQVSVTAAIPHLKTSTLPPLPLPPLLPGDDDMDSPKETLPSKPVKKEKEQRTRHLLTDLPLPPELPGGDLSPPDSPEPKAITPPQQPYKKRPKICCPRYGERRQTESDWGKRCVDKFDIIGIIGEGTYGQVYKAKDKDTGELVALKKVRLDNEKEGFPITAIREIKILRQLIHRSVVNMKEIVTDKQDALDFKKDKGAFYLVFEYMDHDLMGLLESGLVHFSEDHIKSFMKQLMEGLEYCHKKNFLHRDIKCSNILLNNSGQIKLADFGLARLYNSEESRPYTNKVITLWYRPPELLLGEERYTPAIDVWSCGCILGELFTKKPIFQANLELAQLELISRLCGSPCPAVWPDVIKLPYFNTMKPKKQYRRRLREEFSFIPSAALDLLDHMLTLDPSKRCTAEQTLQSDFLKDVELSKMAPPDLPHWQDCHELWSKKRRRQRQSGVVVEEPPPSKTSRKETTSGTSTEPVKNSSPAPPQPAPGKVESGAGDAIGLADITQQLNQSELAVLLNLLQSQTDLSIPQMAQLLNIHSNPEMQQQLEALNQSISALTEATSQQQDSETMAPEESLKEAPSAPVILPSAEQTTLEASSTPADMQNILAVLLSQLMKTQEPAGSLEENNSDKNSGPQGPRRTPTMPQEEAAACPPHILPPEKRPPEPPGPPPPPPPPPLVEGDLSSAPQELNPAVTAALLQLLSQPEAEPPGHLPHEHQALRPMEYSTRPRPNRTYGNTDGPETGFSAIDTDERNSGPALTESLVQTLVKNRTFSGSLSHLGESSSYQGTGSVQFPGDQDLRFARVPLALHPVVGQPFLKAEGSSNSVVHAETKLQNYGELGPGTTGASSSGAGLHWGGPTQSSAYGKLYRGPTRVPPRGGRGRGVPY
CDK12/CycK complex, sequence (O75909 whole entry partner, species assumed): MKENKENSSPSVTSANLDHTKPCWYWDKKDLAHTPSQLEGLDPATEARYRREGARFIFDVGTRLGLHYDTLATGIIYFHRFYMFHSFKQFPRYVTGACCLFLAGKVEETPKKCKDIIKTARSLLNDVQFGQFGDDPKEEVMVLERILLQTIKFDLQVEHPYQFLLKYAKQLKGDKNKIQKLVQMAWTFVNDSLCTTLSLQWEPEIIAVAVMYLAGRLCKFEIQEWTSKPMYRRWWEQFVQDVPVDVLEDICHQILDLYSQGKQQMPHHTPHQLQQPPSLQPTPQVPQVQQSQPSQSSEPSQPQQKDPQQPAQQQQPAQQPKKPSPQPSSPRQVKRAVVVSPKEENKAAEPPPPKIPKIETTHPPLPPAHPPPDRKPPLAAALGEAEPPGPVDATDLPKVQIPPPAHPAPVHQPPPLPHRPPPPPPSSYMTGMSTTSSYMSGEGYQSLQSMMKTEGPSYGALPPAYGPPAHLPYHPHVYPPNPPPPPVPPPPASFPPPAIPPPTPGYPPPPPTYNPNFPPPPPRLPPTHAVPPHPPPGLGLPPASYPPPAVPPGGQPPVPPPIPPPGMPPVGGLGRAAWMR
Protocol: Experimental Example 1: CDK12 Binding Assay
(3) Measurement of CDK12 Inhibitory Activity by Binding Assay
His-tagged CDK12/CycK complex was added to a binding assay buffer supplemented with BODIPY-FL labeled AT-7519, terbium-labeled streptavidin and biotin-labeled anti-histidine antibody, and the mixture was stood for not less than 60 min at room temperature. This solution was added to an assay plate containing a test compound dispensed therein, and the mixture was left standing for 120 min at room temperature. The final concentration of CDK12/CycK complex, BODIPY-FL-labeled AT-7519, terbium-labeled streptavidin and biotin-labeled anti-histidine antibody was set to 2 nM, 66 nM, 0.2 nM, and 0.4 nM, respectively. The fluorescence intensity derived from terbium and BODIPY-FL was measured using Envision. The signal value of each well was determined using the TR-FRET ratio calculated by the following formula. TR-FRET ratio=(fluorescence value of BODIPY-FL)÷(fluorescence value of terbium)
The inhibitory rate (%) of the test compound against CDK12 was calculated by the following formula. Inhibitory rate (%)=(1−(TR-FRET ratio of test compound−blank)÷(control−blank))×100
The TR-FRET ratio of the CDK12 enzyme reaction mixture under compound non-addition conditions is indicated as control, and the TR-FRET ratio under 3 μM AT-7519 addition conditions is indicated as blank.
The inhibitory rate of the test compound against CDK12 at […] is shown below.

[3] = biological target: CDK12/CycK enzyme (Homo sapiens, UniProt Q9NYV4); test: Measurement of CDK12/CycK inhibitory activity (ULight-4E-BP1 peptide phosphorylation, LANCE); assay type: biochemical; conditions: inhibitory rate against CDK12/CycK at 1 μM test compound, ATP 10 μM or 500 μM
CDK12/CycK enzyme, sequence (Q9NYV4 whole entry, species assumed): as the sequence (Q9NYV4 whole entry, species assumed) above
CDK12/CycK enzyme, sequence (O75909 whole entry partner, species assumed): as the sequence (O75909 whole entry partner, species assumed) above
Protocol: Experimental Example 2: Measurement of CDK12/CycK Inhibitory Activity
A test compound dissolved in DMSO was added to a reaction solution (50 mM HEPES (pH 7.5), 10 mM MgCl2, 1 mM DTT, 0.01% Tween 20, 0.01% BSA) containing CDK12/CycK enzyme and ULight-labeled eIF4E-binding protein 1 (4E-BP1) (Thr37/Thr46) peptide (PerkinElmer), and the mixture was reacted at room temperature for 60 min. […] was added to give an ATP solution with a final concentration of 10 μM or 500 μM to start the enzyme reaction, and the mixture was reacted at room temperature for 60 min. A LANCE Detection buffer (PerkinElmer) containing europium-labeled anti-phosphorylation 4E-BP1 (Thr37/Thr46) antibody (PerkinElmer) and EDTA (final concentration 10 mM) was added to discontinue the reaction. After standing for 60 min, time decomposition fluorescence value (excitation 320 nm, emission 615 nm, 665 nm) was measured by Envision (PerkinElmer). The inhibitory rate (%) of the test compound against CDK12/CyclinK was calculated by the following formula. Inhibitory rate (%)=(1−(count of test compound−blank)÷(control−blank))×100
The count of the CDK12 enzyme reaction mixture under compound non-addition conditions is indicated as control, and the count under compound non-addition and CDK12/CycK enzyme non-addition conditions is indicated as blank.
The results measured by the above-mentioned method (inhibitory rate (%) of the signal value at 1 μM test compound relative to control is shown below.

[4] = system: A2780 cells; test: In vitro proliferation suppression test (CellTiter-Glo); assay type: cell-based, human; conditions: Homo sapiens, 72 h, A2780 cell proliferation inhibitory rate at 1 μM test compound, three days
Protocol: Experimental Example 4: In Vitro Proliferation Suppression Test
The proliferation suppressive activity of compound in A2780 cells was evaluated by the following method.
A2780 cells were seeded in a 384-well white plate at a cell density of 1,000 cells/40 μL/well or a 96-well white plate at a cell density of 1,000 cells/90 μL/well using an assay medium (RPMI1640 medium containing 10% fetal bovine serum (FUJIFILM Wako Pure Chemical Corporation)) and incubated at 37° C. in 5% CO2.
The next day, a test compound dissolved in dimethyl sulfoxide (DMSO) was diluted with an assay medium, the obtained compound solution was added by 40 μL/well or 10 μL/well to each well of the plate containing A2780 cells and the mixture was incubated (test compound addition group). In addition, a similar reaction was performed without adding the test compound (test compound non-addition group).
Three days later, 80 μL or 100 μL of CellTiter-Glo reagent (Promega) was added, and the mixture was stirred for 10 min. Thereafter, the luminescence of each well was measured by ARVO-MX multilabel counter (Perkin Elmer Inc.).
The proliferation inhibitory rate (%) of each test compound against A2780 cells was calculated by the following calculation formula. Proliferation inhibitory rate (%)=(1−luminescence of test compound addition group÷luminescence of test compound non-addition group)×100
The A2780 cell proliferation inhibitory rate (%) of 1 μM test compound is shown below.

SMILES | inhibition at 1 µM [1] | inhibition at 1 µM [2] | inhibition at 1 µM [3] | inhibition at 1 µM [4]
Cn1cc(-c2ccc(N(C(=O)NCc3ccccc3)[C@H]3CC[C@H](Nc4ncc(C#N)c(NC5COC5)n4)CC3)nc2)cn1 [Example 319, 3-benzyl-1-(trans-4-((5-cyano-4-(oxetan-3-ylamino)pyrimidin-2-yl)amino)cyclohexyl)-1-(5-(1-methyl-1H-pyrazol-4-yl)pyridin-2-yl)urea] | 69% | 94% | 98% | 97%
Cn1cc(-c2ccc(N(C(=O)NCc3ccccc3)[C@H]3CC[C@H](Nc4ncc(C#N)c(-c5cncc(S(C)(=O)=O)c5)n4)CC3)nc2)cn1 [Example 440, 3-benzyl-1-(trans-4-((5-cyano-4-(5-(methylsulfonyl)pyridin-3-yl)pyrimidin-2-yl)amino)cyclohexyl)-1-(5-(1-methyl-1H-pyrazol-4-yl)pyridin-2-yl) urea] | 54% | 99% | 101% | 98%
Cc1cc(-c2nc(N[C@H]3CC[C@H](N(C(=O)NCc4ccccc4)c4ccc(-c5cnn(C)c5)cn4)CC3)ncc2C#N)[nH]n1 [Example 469, 3-benzyl-1-(trans-4-((5-cyano-4-(3-methyl-1H-pyrazol-5-yl)pyrimidin-2-yl)amino)cyclohexyl)-1-(5-(1-methyl-1H-pyrazol-4-yl)pyridin-2-yl) urea] | 62% | 94% | 103% | 97%
Cn1cc(-c2ccc(N(C(=O)NCc3ccccc3)[C@H]3CC[C@H](Nc4ncc(C#N)c(OC5COC5)n4)CC3)nc2)cn1 [Example 485, 3-benzyl-1-(trans-4-((5-cyano-4-(oxetan-3-yloxy)pyrimidin-2-yl)amino)cyclohexyl)-1-(5-(1-methyl-1H-pyrazol-4-yl)pyridin-2-yl)urea] | 63% | 102% | 103% | 97%
Cn1cc(-c2ccc(N(C(=O)NCc3ccccc3)[C@H]3CC[C@H](Nc4ncc(C#N)c(NC5COC5)n4)CC3)cc2)cn1 [Example 527, 3-benzyl-1-(trans-4-((5-cyano-4-(oxetan-3-ylamino)pyrimidin-2-yl)amino)cyclohexyl)-1-(4-(1-methyl-1H-pyrazol-4-yl)phenyl)urea] | 70% | 102% | 99% | 97%
Cn1ccc(-c2ccc(N(C(=O)NCc3ccccc3)[C@H]3CC[C@H](Nc4ncc(C#N)c(NC5COC5)n4)CC3)cc2)cc1=O [Example 530, 3-benzyl-1-(trans-4-((5-cyano-4-(oxetan-3-ylamino)pyrimidin-2-yl)amino)cyclohexyl)-1-(4-(1-methyl-2-oxo-1,2-dihydropyridin-4-yl)phenyl) urea] | 64% | 100% | 104% | 97%
Cn1cc(-c2ccc(N(C(=O)NCc3ccccc3)[C@H]3CC[C@H](Nc4ncc(C#N)c(-c5[nH]ncc5Cl)n4)CC3)nc2)cn1 [Example 536, 3-benzyl-1-(trans-4-((4-(4-chloro-1H-pyrazol-5-yl)-5-cyanopyrimidin-2-yl)amino)cyclohexyl)-1-(5-(1-methyl-1H-pyrazol-4-yl)pyridin-2-yl)urea] | 82% | 96% | 95% | 91%
Cn1cc(-c2cnc(N(C(=O)NCc3ccccc3)[C@H]3CC[C@H](Nc4ncc(C#N)c(NC5COC5)n4)CC3)cn2)cn1 [Example 539, 3-benzyl-1-(trans-4-((5-cyano-4-(oxetan-3-ylamino)pyrimidin-2-yl)amino)cyclohexyl)-1-(5-(1-methyl-1H-pyrazol-4-yl)pyrazin-2-yl)urea] | 71% | 99% | 109% | 96%
